Several values for one entry are separate records, joined by “and”; a condition that tells them apart may be missing. Equal entries are not always repeated. Entries after “also recorded” stand apart in the source; their conditions may differ. Where two headings read alike, the source gives them in different places.
Columns and labels:
[1] = target: T1, CYP2C19 (Homo sapiens, UniProt P33261); assay: Inhibition of CYP2C19; assay type: in vitro ADME; conditions: CYP450 isoform inhibition kit (BD Biosciences), probe CEC
T1 construct: purchased BD Biosciences
T1 sequence (P33261 whole entry, canonical isoform): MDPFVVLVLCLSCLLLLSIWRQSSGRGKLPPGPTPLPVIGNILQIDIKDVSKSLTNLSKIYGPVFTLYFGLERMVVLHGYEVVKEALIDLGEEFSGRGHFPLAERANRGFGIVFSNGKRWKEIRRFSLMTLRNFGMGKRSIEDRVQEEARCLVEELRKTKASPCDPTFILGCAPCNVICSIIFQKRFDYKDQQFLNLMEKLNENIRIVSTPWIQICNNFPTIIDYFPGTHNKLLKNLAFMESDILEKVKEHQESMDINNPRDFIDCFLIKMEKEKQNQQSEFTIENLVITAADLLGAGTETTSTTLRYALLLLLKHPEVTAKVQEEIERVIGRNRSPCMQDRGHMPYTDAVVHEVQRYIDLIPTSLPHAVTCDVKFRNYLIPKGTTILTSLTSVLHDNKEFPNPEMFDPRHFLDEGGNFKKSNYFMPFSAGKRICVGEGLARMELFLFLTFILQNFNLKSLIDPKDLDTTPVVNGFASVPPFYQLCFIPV
Method: A HepG2 cytotoxicity assay was used to determine a cellular selectivity index. HepG2 cells were seeded into 96-well plates in EMEM medium. Compounds were assessed for their effect upon cellular viability (Supplementary Methods 5.1). Inhibition of CYP450 was determined using kits from BD Biosciences (Supplementary Methods 5.2). Metabolic stability was determined using mouse […] tested at a single concentration of 5 µM. Plasma protein binding was determined using mouse and human plasma at a single concentration of 10 µM (Supplementary Methods 5.4). All PK studies in mice were carried out by Pharmidex (Supplementary Methods 6.1).
The compounds were investigated for their inhibitory effect on cytochrome P450 (CYP450) activity using five CYP450 isoforms (with fluorescent substrates in brackets): 3A4 (two substrates, BFC and DBF), 2D6 (AMMC), 2C9 (MFC), 2C19 (CEC) and 1A2 (CEC). Kits from BD Biosciences were used along with the method described by the manufacturer. […] Fluorescence was measured using a SpectraMax M5 plate reader.

[2] = Pharmacokinetic studies in mice (IV and PO); assay type: in vivo, female CD-1 mice; conditions: for AUC(0-inf): read-out: AUC (infinity)
Method: PK parameters for the lead compounds were determined using three mice per data point (Supplementary Methods 6.1).
Blood samples were collected from terminal cardiac puncture at 0.08 (IV only), 0.25, 0.5, 1 (PO only), 2, 4, 8 and 24 hour time points. The whole blood was centrifuged to obtain plasma. Brains were also collected following cardiac perfusion from both sets of animals at 2 hours. Analysis of the biological samples was carried out by the company Selcia. Plasma proteins were precipitated by addition of PBS (1 volume) followed by 3 volumes of acetonitrile containing internal standard (verapamil). Following filtration through a protein precipitation plate the eluent was dried under nitrogen and re-suspended in mobile phase prior to analysis. Individual brains were homogenised in PBS and diluted to 10% w/v and divided into aliquots consisting of brain homogenate (1 volume, 0.3 ml) and 3 volumes (0.9 ml) of acetonitrile containing internal standard. Samples were centrifuged and supernatants removed and taken through a protein precipitation plate alongside an appropriate standard. Eluents were dried under nitrogen and re-suspended in mobile phase prior to analysis. Eluents were analysed by LC-MS/MS using a Phenomenex Gemini NX column (C18,30 x 2.1 mm, 3 micron). Analysis of the data was carried out using PK solutions software.

[3] = test system: T. b. brucei Lister 427; assay: Mouse model of stage 1 HAT; assay type: in vivo, T. b. brucei in female CD-1 mice
Method: T. b. brucei Lister 427 infection is cured by 1-day dosing. […] These parasites have a doubling time of ~6 h and infection with 1 × 10^5 parasites usually requires euthanasia of mice within 4–5 days of infection in the absence of drug treatment. Drug efficacy is determined by taking regular blood samples from infected mice and checking microscopically for parasitaemia. In this model of acute infection a single surviving parasite should proliferate to reach detectable levels in ~5 days and a 30-day period of no parasite detection is considered as cure.
For the mouse model of stage 1 HAT T. b. brucei Lister 427 parasites (1 × 10^5) were injected into a single donor female CD-1 mouse (University of Edinburgh; 6–8 weeks old) intraperitoneally in D-PBS containing 10 mM glucose. Parasites for subsequent stage 1 HAT infection were obtained from whole blood via cardiac puncture, under gaseous isoflurane anaesthesia. Parasites (1 × 10^3) harvested from the donor mouse were then injected into the peritoneum of female CD-1 mice (University of Edinburgh; 6–8 weeks old) in D-PBS containing 10 mM glucose. One day after infection, animals were either left untreated (n = 3) or dosed orally by gavage (n = 5) with CTCB compound in Cremophor EL: EtOH: D-PBS (30:10:60 v/v; Supplementary Methods 6.3).
T. b. brucei Lister 427 parasites (1 x 10^5) were injected into a single donor female CD-1 mouse (University of Edinburgh; 6-8 weeks old) intraperitoneally in D-PBS containing 10 mM glucose. Parasites for subsequent Stage 1 HAT infection were obtained from whole blood via cardiac puncture, under gaseous isoflurane anaesthesia as described above. Parasites (1 x 10^3) harvested from the donor mouse were then injected into the peritoneum of female CD-1 mice (University of Edinburgh; 6-8 weeks old) in D-PBS containing 10mM glucose. One day after infection, animals were either left untreated (n=3) or dosed orally by gavage (n=5) with CTCB compound in Cremophor EL: EtOH : D-PBS (30:10:60 v/v). The veterinary trypanocidal drug pentamidine isethionate (2.5 mg/kg for 4 consecutive days after infection) was administered intraperitoneally as control (n=3) for parasite elimination. Mice were monitored daily for parasitaemia day 1 post-infection onwards. Trypanosomes were quantified in blood samples from the tail vein by microscopy as previously described (12). Animals were sacrificed on the day that parasites were first detected in blood samples. (Supplementary Figure 11)

[4] = female, CD-1, plasma, mouse, PO 5 mg kg^−1

In the case of `CN(C)CCn1ccc2c(ccn2Cc2ccc(Cl)c(Cl)c2)c1=O` [CTCB-405, 1-[(3,4-Dichlorophenyl)methyl]-5-[2-(dimethylamino)ethyl] pyrrolo[3,2-c]pyridin-4-one], the inhibition at 10 µM [1] was 64%, the “Plasma concentration, individual animal” value ([2]; 1 mg/kg IV bolus, mouse (female, CD-1), 0.08 h) was 0.415 µM and 0.386 µM and 140.6 ng/ml and 135.9 ng/ml and the “Plasma concentration, individual animal” value ([2]; 1 mg/kg IV bolus, mouse (female, CD-1), 0.25 h) was 0.37 µM and 0.489 µM and 178.1 ng/ml and 108.2 ng/ml. The “Plasma concentration, individual animal” value ([2]; 1 mg/kg IV bolus, mouse (female, CD-1), 0.5 h) was 0.118 µM and 0.159 µM and 57.9 ng/ml and 49.5 ng/ml, the “Plasma concentration, individual animal” value ([2]; 1 mg/kg IV bolus, mouse (female, CD-1), 2 h) was 0.049 µM and 0.069 µM and 0.109 µM and 25.1 ng/ml and 39.7 ng/ml and 17.8 ng/ml and the “Plasma concentration, individual animal” value ([2]; 1 mg/kg IV bolus, mouse (female, CD-1), 4 h) was 0.042 µM and 0.015 µM and 0.019 µM and 5.5 ng/ml and 6.9 ng/ml and 15.3 ng/ml. For the same compound, the “Plasma concentration, individual animal” value ([2]; 1 mg/kg IV bolus, mouse (female, CD-1), 8 h) was 0.011 µM and 4.0 ng/ml, the “Plasma concentration, individual animal” value ([2]; 5 mg/kg oral dose (PO), mouse (female, CD-1), 0.25 h) was 279.4 ng/ml and 164.7 ng/ml and 0.767 µM and 0.452 µM and the “Plasma concentration, individual animal” value ([2]; 5 mg/kg oral dose (PO), mouse (female, CD-1), 0.5 h) was 77.6 ng/ml and 126.4 ng/ml and 0.213 µM and 0.347 µM. For the same compound, the “Plasma concentration, individual animal” value ([2]; 5 mg/kg oral dose (PO), mouse (female, CD-1), 1 h) was 129.3 ng/ml and 229.9 ng/ml and 100.9 ng/ml and 0.355 µM and 0.631 µM and 0.277 µM, the “Plasma concentration, individual animal” value ([2]; 5 mg/kg oral dose (PO), mouse (female, CD-1), 2 h) was 177.4 ng/ml and 144.3 ng/ml and 303.4 ng/ml and 0.487 µM and 0.396 µM and 0.833 µM and the “Plasma concentration, individual animal” value ([2]; 5 mg/kg oral dose (PO), mouse (female, CD-1), 4 h) was 88.9 ng/ml and 83.8 ng/ml and 0.244 µM and 0.23 µM. The “Plasma concentration, individual animal” value ([2]; 5 mg/kg oral dose (PO), mouse (female, CD-1), 8 h) was 9.1 ng/ml and 0.025 µM, the concentration at 0.08 h ([2]; female, CD-1, mouse, plasma, intravenous, 1 mg/kg, 1 mg/kg IV bolus, mouse (female, CD-1), 0.08 h, read-out: Plasma concentration, Mean) was 143 ng/mL and 391 nM and the concentration at 0.08 h ([2]; female, CD-1, mouse, plasma, intravenous, 1 mg/kg, 1 mg/kg IV bolus, mouse (female, CD-1), 0.08 h, read-out: Plasma concentration, individual animal) was 373 nM and 151 ng/mL. The concentration at 0.25 h ([2]; female, CD-1, mouse, plasma, intravenous, 1 mg/kg, 1 mg/kg IV bolus, mouse (female, CD-1), 0.25 h, read-out: Plasma concentration, Mean) was 140 ng/mL and 385 nM, the concentration at 0.25 h ([2]; female, CD-1, mouse, plasma, intravenous, 1 mg/kg, 1 mg/kg IV bolus, mouse (female, CD-1), 0.25 h, read-out: Plasma concentration, individual animal) was 297 nM and 135 ng/mL and the concentration at 0.5 h ([2]; female, CD-1, mouse, plasma, intravenous, 1 mg/kg, 1 mg/kg IV bolus, mouse (female, CD-1), 0.5 h, read-out: Plasma concentration, Mean) was 50.1 ng/mL and 138 nM. For the same compound, the concentration at 0.5 h ([2]; female, CD-1, mouse, plasma, intravenous, 1 mg/kg, 1 mg/kg IV bolus, mouse (female, CD-1), 0.5 h, read-out: Plasma concentration, individual animal) was 136 nM and 43 ng/mL, the concentration at 2 h ([2]; female, CD-1, mouse, plasma, intravenous, 1 mg/kg, 1 mg/kg IV bolus, mouse (female, CD-1), 2 h) was 27.6 ng/mL and 75.7 nM and the concentration at 4 h ([2]; female, CD-1, mouse, plasma, intravenous, 1 mg/kg, 1 mg/kg IV bolus, mouse (female, CD-1), 4 h, read-out: Plasma concentration, Mean) was 9.23 ng/mL and 25.3 nM. For the same compound, the concentration at 8 h ([2]; female, CD-1, mouse, plasma, intravenous, 1 mg/kg, 1 mg/kg IV bolus, mouse (female, CD-1), 8 h, read-out: Plasma concentration, Mean) was 3.28 ng/mL and 9 nM, the concentration at 8 h ([2]; female, CD-1, mouse, plasma, intravenous, 1 mg/kg, 1 mg/kg IV bolus, mouse (female, CD-1), 8 h, read-out: Plasma concentration, individual animal) was 7 nM and 2.5 ng/mL and the concentration at 0.25 h ([2]; female, CD-1, mouse, plasma, oral, 5 mg/kg, 5 mg/kg oral dose (PO), mouse (female, CD-1), 0.25 h, read-out: Plasma concentration, Mean) was 200 ng/mL and 548 nM. The concentration at 0.25 h ([2]; female, CD-1, mouse, plasma, oral, 5 mg/kg, 5 mg/kg oral dose (PO), mouse (female, CD-1), 0.25 h, read-out: Plasma concentration, individual animal) was 155 ng/mL and 426 nM, the concentration at 0.5 h ([2]; female, CD-1, mouse, plasma, oral, 5 mg/kg, 5 mg/kg oral dose (PO), mouse (female, CD-1), 0.5 h, read-out: Plasma concentration, Mean) was 103 ng/mL and 283 nM and the concentration at 0.5 h ([2]; female, CD-1, mouse, plasma, oral, 5 mg/kg, 5 mg/kg oral dose (PO), mouse (female, CD-1), 0.5 h, read-out: Plasma concentration, individual animal) was 105 ng/mL and 288 nM. The concentration at 1 h ([2]; female, CD-1, mouse, plasma, oral, 5 mg/kg, 5 mg/kg oral dose (PO), mouse (female, CD-1), 1 h) was 153 ng/mL and 421 nM, the concentration at 2 h ([2]; female, CD-1, mouse, plasma, oral, 5 mg/kg, 5 mg/kg oral dose (PO), mouse (female, CD-1), 2 h) was 208 ng/mL and 572 nM and the concentration at 4 h ([2]; female, CD-1, mouse, plasma, oral, 5 mg/kg, 5 mg/kg oral dose (PO), mouse (female, CD-1), 4 h, read-out: Plasma concentration, Mean) was 89 ng/mL and 244 nM. For the same compound, the concentration at 4 h ([2]; female, CD-1, mouse, plasma, oral, 5 mg/kg, 5 mg/kg oral dose (PO), mouse (female, CD-1), 4 h, read-out: Plasma concentration, individual animal) was 94.3 ng/mL and 259 nM, the concentration at 8 h ([2]; female, CD-1, mouse, plasma, oral, 5 mg/kg, 5 mg/kg oral dose (PO), mouse (female, CD-1), 8 h, read-out: Plasma concentration, Mean) was 8.2 ng/mL and 22.5 nM and the concentration at 8 h ([2]; female, CD-1, mouse, plasma, oral, 5 mg/kg, 5 mg/kg oral dose (PO), mouse (female, CD-1), 8 h, read-out: Plasma concentration, individual animal) was 7.3 ng/mL and 20 nM. It also gave an AUC(0-inf) ([2]; female, CD-1, plasma, mouse, IV 1 mg kg^−1) of 260 ng·h/mL, a clearance ([2]; female, CD-1, plasma, mouse, IV 1 mg kg^−1, read-out: CL/kg (converted)) of 63.3 mL/min/kg and a half-life ([2]; female, CD-1, plasma, mouse, IV 1 mg kg^−1, read-out: Elimination t1/2 (converted)) of 162 min. It also gave a Vd ([2]; female, CD-1, plasma, mouse, IV 1 mg kg^−1, read-out: Vd (area)) of 12.3 L/kg, a Cmax [2, 4] of 206 ng/mL and a Tmax [2, 4] of 18 min. The AUC(0-inf) [2, 4] was 704 ng·h/mL, the bioavailability ([2]; female, CD-1, plasma, mouse, PO 5 mg kg^−1 vs IV 1 mg kg^−1, read-out: Bioavailability (F%)) was 54% and the “delay of onset of parasitaemia” value ([3]; single oral doses of 50 mg kg^−1 over four consecutive days) was “up to 12 days”. The outcome of treatment ([3]; three oral 50 mg kg^−1 doses 2 h apart daily over 2 days, n = 5) was “parasite clearance; also recorded: complete cure; also recorded: either complete clearance or a significant increase in survival”, the outcome of treatment ([3]; three oral doses of 100 mg kg^−1 2 h apart on a single day, n = 5) was “parasites are undetectable; also recorded: no recurrence of parasitaemia 30 days post infection” and the “infected mice with complete cure” value ([3]; three oral doses of 100 mg kg^−1 at 2 h intervals on 1 day, cure = no parasitaemia for >30 days) was 5/5. For the same compound, the outcome of treatment ([3]; two daily oral doses at 25 mg/kg delivered 4 hours apart, n=5) was “prolongs survival but does not improve efficacy”.

Reference: paper PMC7887271, “Fast acting allosteric phosphofructokinase inhibitors block trypanosome glycolysis and cure acute African trypanosomiasis in mice” (Nature Communications, 2021)
